As a reminder, the MIC is the smallest concentration in the dilution series that meets the test's criterion for growth inhibition. Lower therefore signals inhibition by little substance.

Consider five compounds from patent US4552882A, “7-(1-Pyrrolyl) derivatives of 1-ethyl-1,4-dihydro-4-oxoquinoline-3-carboxylic acids and 1-ethyl-1,4-dihydro-4-oxo-1,8-naphthyridine-3-carboxylic acids and their use as antimicrobial agents” (Provesan, SA, priority 1983, dated 1985).

Common to all, as to assay: MIC in vitro
The test system of experiment [1] is Escherichia coli ATCC 10536. Type of experiment: cell-based. The following applies: ATCC10536, Dextrose agar, 37° C., 20 hours. How it is done:
(§1) (G. L. Daquet and Y. A. Chabbect, Techniques en bacteriologie (Bacteriological techniques), vol. 3, Flammarion Medecine Sciences, Paris, 1972 and W. B. Hugo and A. D. Rusell, Pharmaceutical Microbiology, Blackwell Scientific Publications, London, (1977)). Antibiotic medium no. 1 (seed agar) (Oxoid CM 327) Tryptone-soya broth (Oxoid CM 129) Ringer's physiological solution 1/4 (oxoid BR 52) Dextrose agar (BBL-11165) 0.1 N NaOH "Escherichia coli" ATCC 10536 Each of the microorganisms is seeded by streaking in tubes of Antibiotic medium No. 1 (seed agar), which are then incubated at 37° C. for 20 hours. Using a culture loop, the cultures are then seeded in tryptone-soyabroth and incubated at 37° C. for 20 hours. The culture obtained is diluted to 1/4 with Ringer's physiological solution, so as to obtain a standardized suspension of 10^7 -10^9 cfu/ml for each organism. Starting from a solution of 1,000 μg/ml in 0.1 N NaOH, each product is diluted in Dextrose agar (previously melted and maintained at 50° C.), with successive dilutions so as to obtain the following concentrations: 64--32--16--8--4--2--1--0.5--0.25--0.125 μg of derivative/ml medium. For each product, the solution of each concentration is subsequently distributed into Petri dishes 10 cm in diameter, with 10 ml of medium per dish and the same number of dishes as microorganisms to be tested. As soon as the medium has cooled, the dishes are seeded with the inoculations using 0.4 ml of inoculation per dish. They are spread with a Driglasky loop and the supernatant is removed. The seeded dishes are incubated at 37° C. for 20 hours.

The test system of experiment [2] is Salmonella typhimurius AMES 100. Type of experiment: cell-based, Salmonella typhimurium. The following applies: AMES100, Dextrose agar, 37° C., 20 hours. How it is done: (G. L. Daquet and Y. A. Chabbect, Techniques en bacteriologie (Bacteriological techniques), vol. 3, Flammarion Medecine Sciences, Paris, 1972 and W. B. Hugo and A. D. Rusell, Pharmaceutical Microbiology, Blackwell Scientific Publications, London, (1977)).
Antibiotic medium no. 1 (seed agar) (Oxoid CM 327)
Tryptone-soya broth (Oxoid CM 129)
Ringer's physiological solution 1/4 (oxoid BR 52) Dextrose agar (BBL-11165) 0.1 N NaOH
"Salmonella typhimurium" AMES 100
Each of the microorganisms is seeded by streaking in tubes of Antibiotic medium No. 1 (seed agar), which are then incubated at 37° C. for 20 hours. Using a culture loop, the cultures are then seeded in tryptone-soyabroth and incubated at 37° C. for 20 hours. The culture obtained is diluted to 1/4 with Ringer's physiological solution, so as to obtain a standardized suspension of 10^7 -10^9 cfu/ml for each organism.
Starting from a solution of 1,000 μg/ml in 0.1 N NaOH, each product is diluted in Dextrose agar (previously melted and maintained at 50° C.), with successive dilutions so as to obtain the following concentrations: 64--32--16--8--4--2--1--0.5--0.25--0.125 μg of derivative/ml medium.
For each product, the solution of each concentration is subsequently distributed into Petri dishes 10 cm in diameter, with 10 ml of medium per dish and the same number of dishes as microorganisms to be tested.
As soon as the medium has cooled, the dishes are seeded with the inoculations using 0.4 ml of inoculation per dish. They are spread with a Driglasky loop and the supernatant is removed. The seeded dishes are incubated at 37° C. for 20 hours.

In experiment [3] the test system is Serratia marcescens ATCC 13880. In kind it is cell-based. The following applies: ATCC13880, Dextrose agar, 37° C., 20 hours. The protocol: as §1, with “"Serratia marcescens"” for “"Escherichia coli"”, “13880” for “10536”

Structures are written as SMILES. In brackets after ≈: the same amount, converted by molar mass.

For `CCn1cc(C(=O)O)c(=O)c2cnc(N3CCNCC3)nc21` [Pipemidic acid, reference compound], the figures for the minimal inhibitory concentration (MIC) in experiment [1], in experiment [2] and in experiment [3] were 2 µg/mL (≈ 6.59 µM), 8 µg/mL (≈ 26.4 µM) and 16 µg/mL (≈ 52.7 µM), respectively.
For `CCn1cc(C(=O)O)c(=O)c2ccc(-n3cccc3)nc21` [Example 3, 1-ethyl-1,4-dihydro-4-oxo-7-(1-pyrrolyl)-1,8-naphthyridine-3-carboxylic acid] the same measures were 8 µg/mL (≈ 28.2 µM), 8 µg/mL (≈ 28.2 µM) and 16 µg/mL (≈ 56.5 µM).
For `CCn1cc(C(=O)O)c(=O)c2ccc(-n3cccc3)cc21` [Example 1, 7-(1-pyrrolyl)-1-ethyl-1,4-dihydro-4-oxo-3-quinolinecarboxylic acid] the same measures were 4 µg/mL (≈ 14.2 µM), 4 µg/mL (≈ 14.2 µM) and 8 µg/mL (≈ 28.3 µM).
Regarding `CCn1cc(C(=O)O)c(=O)c2cc(F)c(-n3cccc3)nc21` [Example 4, 1-ethyl-1,4-dihydro-4-oxo-6-fluoro-7-(1-pyrrolyl)-1,8-naphthyridine-3-carboxylic acid], the MIC in experiment [1] amounted to 0.12 µg/mL (≈ 0.398 µM); in experiment [2] it was 0.5 µg/mL (≈ 1.66 µM); in experiment [3] it was 2 µg/mL (≈ 6.64 µM).
For the compound `CCn1cc(C(=O)O)c(=O)c2cc(F)c(-n3cccc3)cc21` [Example 2, 6-fluoro-7-(1-pyrrolyl)-1-ethyl-1,4-dihydro-4-oxo-3-quinolinecarboxylic acid], the values for the minimum inhibitory concentration (MIC) in experiment [1], in experiment [2] and in experiment [3] were 1 µg/mL (≈ 3.33 µM), 0.5 µg/mL (≈ 1.67 µM) and 2 µg/mL (≈ 6.66 µM), respectively.
